According to patent publication US11608341B2, “Substituted tetrahydropyrazolo[3,4-d]pyrimidines and tetrahydropyrazolo[4,3-d]pyrimidines as C5A receptor modulators” (Idorsia Pharmaceuticals Ltd., priority 2018, dated 2023):

The compounds below were run against T1, C5AR1 (Homo sapiens, UniProt P21730) (assay: In vitro assay: antagonism of C5a-induced beta-arrestin recruitment (PathHunter) in CHO-K1 C5AR1 beta-arrestin cell line). Settings: antagonistic activity, 1-10 nM C5a agonist, geometric mean where several measurements, read-out: C5aR IC50.
T1 construct: host or cells: CHO-K1
T1 sequence (P21730 1-350): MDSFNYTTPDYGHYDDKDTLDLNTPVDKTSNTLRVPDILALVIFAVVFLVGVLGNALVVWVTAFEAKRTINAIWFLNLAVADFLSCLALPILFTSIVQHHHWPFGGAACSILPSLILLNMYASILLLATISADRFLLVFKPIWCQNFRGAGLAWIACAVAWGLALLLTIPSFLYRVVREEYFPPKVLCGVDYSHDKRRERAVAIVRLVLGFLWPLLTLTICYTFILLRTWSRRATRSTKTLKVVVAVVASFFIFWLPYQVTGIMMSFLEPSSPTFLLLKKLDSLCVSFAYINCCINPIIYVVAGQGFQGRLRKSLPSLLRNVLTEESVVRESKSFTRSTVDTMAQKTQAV
Assay type: cell-based
Summary of the method: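 Antagonist or DMSO added first, then C5a (1-10 nM, added at 6-fold end concentration), 1.5 h at 37 °C. PathHunter detection reagent was added for 45 min at RT before plate reading. IC50s come from antagonist serial dilutions in nmol/l and are geometric means of several measurements.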

IC50 [nM]	Structure (SMILES)
87	Cc1cccc(F)c1N1CCC(N2Cc3cn(CC(C)(F)F)nc3N(Cc3c(Br)cccc3C(F)(F)F)C2=O)CC1 [Example 214]
30	Cn1cc2c(n1)N(Cc1ccccc1C1CC1)C(=O)N(C1CCN(c3c(F)cccc3C3CC3)CC1)C2 [Example 307]
34	Cc1cccc(F)c1N1CCCC(N2Cc3cn(C)nc3N(Cc3ccccc3C(F)(F)F)C2=O)CC1 (single isomer, unassigned) [Example 225]
18	COc1cccc(C)c1N1CCC(N2Cc3cn(C)nc3N(Cc3ccccc3C(F)(F)F)C2=O)CC1 [Example 48]
9	Cc1cccc(F)c1N1CCC(N2Cc3cn(C)nc3N(Cc3ccccc3OC(C)C)C2=O)CC1 [Example 251]
10	Cc1cccc(F)c1N1CCC(N2Cc3cn(C)nc3N(Cc3ccccc3C3CC3)C2=O)CC1 [Example 228]
19	Cc1cccc(C)c1N1CCC(N2Cc3cn(C)nc3N(Cc3ccccc3C(F)(F)F)C2=O)CC1 [Example 47]
156	Cc1cccc(F)c1N1CCC(N2Cc3cn(C(C)(C)CN)nc3N(Cc3ccccc3C(F)(F)F)C2=O)CC1 [Example 88]
26	COCCN(C)CCn1cc2c(n1)N(Cc1ccccc1C(F)(F)F)C(=O)N(C1CCN(c3c(C)cccc3F)CC1)C2 [Example 74]
57	COc1nccc(C(F)F)c1N1CCC(N2C(=O)N(Cc3ccccc3C(F)(F)F)c3nn(C4CCCCO4)cc3C2C)CC1 (stereo not drawn) [Example 343]
11	CC1c2c[nH]nc2N(Cc2ccccc2C2CC2)C(=O)N1C1CCN(c2c(F)cccc2Cl)CC1 (single isomer, unassigned) [Example 372]
45	Cc1cccc(F)c1N1CCC(N2Cc3nn(COCC[Si](C)(C)C)cc3N(Cc3ccccc3C(F)(F)F)C2=O)CC1 [Example 195]
21	Cc1cccc(F)c1N1CCC(N2Cc3cn(C[C@H]4CC(F)(F)CN4C(=O)OC(C)(C)C)nc3N(Cc3ccccc3C(F)(F)F)C2=O)CC1 [Example 108]
193	COc1nccc(C)c1N1CCC(N2C(=O)N(Cc3ccccc3C3CC3)c3cn(C4CCCCO4)nc3C2C)CC1 (stereo not drawn) [Example 269]
17	Cc1cccc(F)c1N1CCC(N2Cc3cn(C4CN(c5nnc(C(C)C)o5)C4)nc3N(Cc3ccccc3C(F)(F)F)C2=O)CC1 [Example 143]
